In a melting point compilation (Tetko et al.; mined from patent text by program, amines drawn as free bases though some values may be those of a salt):

First: COC(=O)Cc1ccc(OCCNC(=O)C2Cc3ccccc3N2S(=O)(=O)c2ccc(-c3cc(C(F)(F)F)ccc3Cl)cc2)c(Cl)c1 (configuration not stated)
Second: C=CCOC(=O)c1ccc(-c2nn(-c3ccc(C(=O)ON4C(=O)CCC4=O)cc3)c3ccccc23)cc1
The melting point of the first is lower: 68 to 76 °C for the first, 178 °C for the second.

First: Cl/C(=C/n1cncn1)c1ccc(Br)cc1Cl
Second: Cn1ncc(C(=O)Nc2cc(Cl)ccc2Cl)c1N
The melting point of the first is lower: 84 °C for the first, 190 to 191 °C for the second.

First: CCOc1nc(=O)c2cc(C(F)(F)F)cc([N+](=O)[O-])c2s1
Second: CCCc1nn(-c2ccc(C(F)(F)F)cn2)cc1CCCOc1nn(C)cc1CC(=O)O
The melting point of the first is higher: 146 to 148 °C for the first, 119 to 120 °C for the second.

Compared with `CCc1nnc2c(Nc3ccc(Cl)cc3OC)nc3ccccc3n12`, `COc1ccc(CNc2nnc(N3CCC(O)C3)c3ccc(Cl)cc23)cc1Cl` (configuration not stated) is lower in melting point: 245 to 248 °C for the first, 191 to 193 °C for the second.

Compared with `N=C(Nc1cccc(NC(=O)/C=C/c2ccccc2C(F)(F)F)c1)c1ccccc1`, `O=C(NC(Cc1ccccc1)C(=O)O)c1ccc2cc(Oc3ccccc3)ccc2c1` (configuration not stated) is higher in melting point: 82 to 84 °C for the first, 179 to 180 °C for the second.

Compared with `CN1CC(C(=O)CN2CCOCC2)CC2c3cccc4[nH]cc(c34)CC21` (configuration not stated), `Oc1cccc(CN2CCOCC2)c1` is lower in melting point: 178 to 180 °C for the first, 113 to 115 °C for the second.

First: CCCCCCCCCCCC(=O)N1CCOC1=O
Second: CCCCCCCCCCCCNC(N)=O
The melting point of the first is lower: 63 to 65 °C for the first, 105 to 107 °C for the second.

First: O=C(O)c1ccc(-c2c[nH]c(=O)cn2)cc1
Second: O=C(O)c1ccc(NCCCc2ccccc2)cc1
The melting point of the first is higher: over 300 °C for the first, 162 to 163 °C for the second.

First: O=c1ccsn1C(O)C(Cl)(Cl)Cl (configuration not stated)
Second: CC(O)c1occc(=O)c1O (configuration not stated)
The melting point of the first is lower: 117 to 118 °C for the first, 131 to 132 °C for the second.

First: CC(C)(C)c1ccccc1N1CCN(C(=O)CCC(=O)NS(C)(=O)=O)CC1
Second: CCN(CC)C(=O)c1ccccc1C(C)(C)C
The melting point of the first is higher: 89 to 90 °C for the first, 38.5 to 40.5 °C for the second.

First: CCCn1c(COC)nc2c(N)nc3ccc(OCC(=O)N4CCOCC4)cc3c21
Second: CCCc1nc2c(N)nc3cc(Br)ccc3c2n1NC(C)C
The melting point of the first is lower: 201 to 204 °C for the first, 226 to 228 °C for the second.

First: CC(=O)c1cc(CS(C)=O)ccc1O (configuration not stated)
Second: CCc1cc(C(=O)O)c2cc(C(C)C)cccc1-2
The melting point of the first is lower: 95 to 97 °C for the first, 154 to 156 °C for the second.

Compared with `CC(C)(C)OC(=O)C(C1NC(C(=O)O)C2(CCOCC2)S1)N1C(=O)c2ccccc2C1=O` (configuration not stated), `CCC(Oc1ccccc1C(C)(C)C)C(=O)OC1CC(O)C=C2C=CC(C)C(CCC3CC(O)CC(=O)O3)C21` (mixture of isomers) is lower in melting point: 199 to 200 °C for the first, 176 to 178 °C for the second.

First: CC1(C)Oc2ccsc2C(N2CCCCC2=O)C1O (configuration not stated)
Second: CC1(C)CCCC(=Cc2ccc(Cl)cc2)C1=O
The melting point of the first is higher: 151 to 152 °C for the first, 92 °C for the second.

Compared with `CC(C)(C)C(NC(=O)c1cccc(Cl)c1)Nc1c(Nc2cccnc2Cl)c(=O)c1=O` (configuration not stated), `CC(C)(C)OCC(NC(=O)c1ccc2c(Cl)cnc(Cl)c2c1)C(=O)OC(C)(C)C` (racemic) is lower in melting point: 213 to 214 °C for the first, 116 to 117 °C for the second.

First: CC1(C)N=C(NC(=O)c2ccco2)N=C(NC(=O)c2ccco2)N1OCc1cccc2ccccc12
Second: O=C(O)COc1cccc(CCc2cc(-c3ccccc3)n(-c3ccccc3)n2)c1
The melting point of the first is higher: 173 to 177 °C for the first, 125 to 127 °C for the second.

Compared with `Cc1oc(-c2ccccc2)nc1CCc1ccc(/C=C/C=C/C=O)cc1`, `CCCOc1ccn2nc(-c3ccccc3)c(-c3ccc(=O)n(C(C)C)n3)c2c1` is higher in melting point: 107 to 108 °C for the first, 162 °C for the second.

First: c1ccc(-c2cc(-c3ccc(C4CCCC4)cc3)sc2-c2ccccc2)cc1
Second: COC(=O)[C@@]12CN(Cc3ccccc3)C[C@@H]1[C@@](O)(c1ccc(SC)cc1)CC[C@H]2c1ccccc1 (racemic)
The melting point of the first is higher: 150 °C for the first, 124 to 126 °C for the second.

First: NNC(=O)CCc1cccc(F)c1
Second: COc1ccc2cc(CCC(C)O)cc(F)c2c1 (configuration not stated)
The melting point of the first is higher: 109 to 110 °C for the first, 58 to 60 °C for the second.

First: CC(C)(C)c1ccc(C2=NC[C@@H](O)[C@H](c3ccccc3)O2)cc1 (racemic)
Second: COC(=O)C1(C)c2ccccc2Oc2ccccc21
The melting point of the first is lower: 50 °C for the first, 91 to 92 °C for the second.

First: O=C(O)c1cc(Cl)cc(Cl)c1NS(=O)(=O)c1ccc(Cl)cc1
Second: CC(C)Oc1ccc(COc2ccc(CC(=O)O)cc2Cl)cc1Cl
The melting point of the first is higher: 273 to 276 °C for the first, 129 to 130 °C for the second.

First: COc1cc(C(=O)c2ncc3ccc(C(N)=O)cn23)ccc1[N+](=O)[O-]
Second: COc1ccc(C2Nc3ccccc3-c3c([N+](=O)[O-])cnn32)cc1 (configuration not stated)
The melting point of the first is higher: 289 °C for the first, 181 to 183 °C for the second.

Compared with `O=C(CC(CSc1nc2ccccc2s1)C(=O)NC1CCCCC1)NC1CCCCC1` (configuration not stated), `O=C(CC1CCCCC1)Nc1ccc2oc3c(c2c1)CCCCCC3` is higher in melting point: 147 to 149 °C for the first, 180 to 181 °C for the second.

First: C=CCn1c(C)c(C)c2cnnc(CCc3ccc(F)cc3F)c21
Second: Cc1nn(CC(C)(C)O)c(-c2ccc(F)cc2)c1-c1ccc2c(c1)NC(=O)CO2
The melting point of the first is lower: 118 to 119 °C for the first, 166 to 167 °C for the second.

First: CC1(C)CCC(C)(C)c2cc(Oc3ccc(C=C(O)C(=O)O)cc3)ccc21
Second: CC(=O)N1CCC(C)(C)c2cc(/C(C)=C/c3ccc(C(=O)O)cc3)ccc21
The melting point of the first is higher: 207 to 210 °C for the first, 200 to 202 °C for the second.

First: COc1cc(C=Cc2ccccc2)c(C#N)c(OC)c1
Second: CCOC(=O)C1Cc2ccc(NC(=O)OCc3ccccc3)cc2NC1=O (configuration not stated)
The melting point of the first is lower: 147 to 148 °C for the first, 187 to 189 °C for the second.

First: CCCCC(CC)Cn1c2cc(Br)ccc2c2ccc(Br)cc21 (configuration not stated)
Second: CCCOC(=O)C1=C(C)N(C)C(C)=C(C(=O)OCCC)C1c1ccc(Br)cc1
The melting point of the first is lower: 95 to 97 °C for the first, 97 to 99 °C for the second.

Compared with `Cc1nn(CCO)c(C)c1Oc1cc(Cl)cc(C#N)c1`, `CCS(=O)c1ccc(Oc2ccc(Cl)c(Cl)c2)nc1C#N` (configuration not stated) is higher in melting point: 114 to 116 °C for the first, 138 to 144 °C for the second.

`Oc1ccc2c(c1)OCC(c1ccc(F)cc1)C2c1ccc(OCCCN2CCCCC2)cc1` (configuration not stated) and `Cn1nc(-c2ccc(F)cc2)c(-c2ccncc2)c1CCCc1ccc(N)cc1` cannot be ordered by melting point: 78 to 84 °C for the first, 80.5 to 81.1 °C for the second.

First: CC(C)Cc1ccc(CCOC(=O)c2cc(O)c3c(c2)C(=O)c2cccc(O)c2C3=O)cc1
Second: CCCc1c(OCCCOc2ccc3c(=O)cc(-c4ccc(C(=O)O)cc4)oc3c2CCC)ccc(C(C)=O)c1O
The melting point of the first is lower: 117 to 121 °C for the first, 226 to 228 °C for the second.

First: CSC(=N)NS(=O)(=O)CCl
Second: Nc1cc(S(N)(=O)=O)sc1Cl
The melting point of the first is lower: 60 to 62 °C for the first, 138 °C for the second.

Compared with `O=c1[nH]c2cc(-c3cn4ccccc4n3)ccc2s1`, `CCCS(=O)c1c2ccccc2nc2c1c(C)nn2-c1ccccn1` (configuration not stated) is lower in melting point: over 270 °C for the first, 125 to 127 °C for the second.

Compared with `CSc1ccc(C(CC2CCCO2)C(=O)O)cc1Cl` (configuration not stated), `CN(C)Cc1cc(C(=O)c2sccc2Cl)cc(C(C)(C)C)c1O` is higher in melting point: 93 to 96 °C for the first, 131 to 132 °C for the second.

Compared with `COC(=O)CCC(=O)OC1CC(C)(C)N(O)C(C)(C)C1`, `CC(=O)OCC(=O)C1CCC2C3CCC4CC(O)C(N5CCOC(C)(C)C5)CC4(C)C3C(=O)CC12C` (configuration not stated) is higher in melting point: 76 °C for the first, 158 to 160 °C for the second.

Compared with `COCCCNC(=O)Nc1ccc(N2CCOCC2)cc1C(=O)NCC1CCN(C(c2ccccc2)c2ccccc2)CC1`, `CCCCNC(=O)C(Cc1ccccc1)NC(=O)c1cc2cc(Cl)ccc2[nH]1` (configuration not stated) is higher in melting point: 175 to 176 °C for the first, 192 to 193 °C for the second.

First: OCCN1CCCNC1=S
Second: N#CCc1cccc(CO)c1[N+](=O)[O-]
The melting point of the first is higher: 112 to 114 °C for the first, 60 to 62 °C for the second.

First: Sc1nc2cc3c(cc2[nH]1)COCO3
Second: Cc1cc2nc(Cl)nc(Cl)c2s1
The melting point of the first is higher: 288 to 289 °C for the first, 152 to 153 °C for the second.

Compared with `C#CCn1c(C#N)ccc1-c1ccc2c(c1)C(C)(C)OC(=O)N2`, `CSc1ccc(CC2=C(O)CSC2=O)cc1` is lower in melting point: 222 to 224 °C for the first, 206 to 208 °C for the second.

Compared with `COC(=O)Cc1ccc(C(=O)CN2CCN(c3ccncc3)CC2)cc1`, `COC(=O)[C@H]1CC[C@H](Oc2ccc(C(=O)O)cc2)CC1` is higher in melting point: 127 to 129 °C for the first, 162 °C for the second.

First: C1CNCCNCCNCCNCCNC1
Second: COc1ccc2c(c1)C1(CCNC1)CC2O (configuration not stated)
The melting point of the first is lower: 109 to 110 °C for the first, 135 to 138 °C for the second.

First: O=C(C[C@@H](c1cc(F)cc(F)c1)C(F)(F)F)N1C(=O)OC[C@@H]1Cc1ccccc1
Second: NNc1nnc(C(=O)C(F)(F)F)nc1-c1ccccc1
The melting point of the first is lower: 127 to 128 °C for the first, 193 to 194 °C for the second.

Compared with `CCOC(=O)C1=Cc2cc(Br)ccc2N(C=O)CC1`, `CCOC(=O)c1cnc2[nH]ncc2c1OCC` is higher in melting point: 150 to 152 °C for the first, 180 °C for the second.

Compared with `COc1ccc2cc([C@H](C)C(=O)OCCN(CCO[N+](=O)[O-])S(=O)(=O)c3ccc(C)cc3)ccc2c1`, `CCCCS(=O)(=O)c1ccc(CCc2nccn3c(CC#N)ccc23)cc1` is higher in melting point: 92 to 95 °C for the first, 188 to 190 °C for the second.

First: CSC(=S)c1cccc([N+](=O)[O-])c1
Second: CC(=O)c1ccc(NS(C)(=O)=O)c(Oc2ccccc2S(C)=O)c1 (configuration not stated)
The melting point of the first is lower: 38 °C for the first, 113 to 116 °C for the second.

First: COc1nc(C(F)(F)C(F)(F)F)cc(=O)n1-c1cc(C(=O)O)c(Cl)cc1F
Second: Cc1c(F)c(F)c(F)c2c1c(=O)c(C(=O)O)cn2C1CC1
The melting point of the first is lower: 197 to 199 °C for the first, 234 to 235 °C for the second.

Compared with `CCCCCCCCCCOc1cc(OCCCCCCCCCC)cc(N(CC(=O)O)CC(=O)OC)c1`, `CCCCCCCc1cn(CC(O)c2ccccc2)c(=N)s1` (configuration not stated) is higher in melting point: 61 to 62 °C for the first, 124 °C for the second.

Compared with `COc1ccc2c(N3CCc4c(Br)ccc(C)c43)ncnc2c1`, `CC(=O)Nc1ccc2nc(-c3cc(C)c(OCCO)c(C)c3)[nH]c(=O)c2c1` is higher in melting point: 134 to 135 °C for the first, over 300 °C for the second.

First: CCOC(=O)C(c1ccc(Nc2nc(-c3cccc(NC(=O)c4cc5c(s4)CCCCC5)c3C)cn(C)c2=O)cc1)N1CCN(CC)CC1 (configuration not stated)
Second: Cc1cccc(NC(=O)CN2c3ccc(Cl)c(Cl)c3[C@@H]3CCN(C(=O)OC(C)(C)C)CC[C@@H]32)c1C (relative stereo)
The melting point of the first is higher: 168 to 170 °C for the first, 146 °C for the second.

First: O=S1(=O)N=C(O)C(O)=N1
Second: CCC(C)CC(C)NC1=NS(=O)(=O)c2cc(Cl)ccc2N1 (configuration not stated)
The melting point of the first is lower: 171 to 172 °C for the first, over 220 °C for the second.

Compared with `Cc1c(-c2cnccn2)c(N2CC[C@H](N(C)C)C2)c2oc(C3CC3)nc2c1C#N`, `CN(C)c1ccc(-c2nc3c(N[C@H]4[C@@H](C(N)=O)[C@@H]5C=C[C@H]4C5)c(Br)cnc3[nH]2)cc1` is higher in melting point: 157 to 159 °C for the first, 264 to 265 °C for the second.

First: Cc1cccc(-c2cncc(Nc3ccc(Cl)cc3)n2)n1
Second: CC(=O)C1=CCC2C3CCC4=CC(=O)C=CC4(C)C3(F)C(O)CC12C (configuration not stated)
The melting point of the first is lower: 186 to 188 °C for the first, 327 to 328 °C for the second.
